# Literature values in patent US11951104B2 (LIVZON PHARMACEUTICAL GROUP INC, priority 2018, dated 2024).
# Key:
# 5-HT2A receptors = 5-HT2A receptors (Homo sapiens, UniProt P28223); conditions: background
# 5-HT1A receptors = biological target: T1, 5-HT1A receptors (Homo sapiens, UniProt P08908); conditions: background
# T1 sequence (P08908 1-422): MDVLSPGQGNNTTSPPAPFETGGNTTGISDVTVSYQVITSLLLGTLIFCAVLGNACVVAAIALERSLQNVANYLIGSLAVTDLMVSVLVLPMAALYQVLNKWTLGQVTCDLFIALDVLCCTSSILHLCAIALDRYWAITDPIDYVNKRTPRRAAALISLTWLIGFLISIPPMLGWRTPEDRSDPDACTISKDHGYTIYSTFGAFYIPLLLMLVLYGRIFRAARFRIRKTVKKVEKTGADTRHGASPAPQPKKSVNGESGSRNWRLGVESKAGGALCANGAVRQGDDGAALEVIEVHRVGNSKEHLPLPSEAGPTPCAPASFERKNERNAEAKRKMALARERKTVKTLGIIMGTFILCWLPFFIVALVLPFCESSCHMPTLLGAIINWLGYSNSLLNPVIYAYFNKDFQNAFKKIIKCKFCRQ
# Sequence of 5-HT2A receptors (P28223 whole entry): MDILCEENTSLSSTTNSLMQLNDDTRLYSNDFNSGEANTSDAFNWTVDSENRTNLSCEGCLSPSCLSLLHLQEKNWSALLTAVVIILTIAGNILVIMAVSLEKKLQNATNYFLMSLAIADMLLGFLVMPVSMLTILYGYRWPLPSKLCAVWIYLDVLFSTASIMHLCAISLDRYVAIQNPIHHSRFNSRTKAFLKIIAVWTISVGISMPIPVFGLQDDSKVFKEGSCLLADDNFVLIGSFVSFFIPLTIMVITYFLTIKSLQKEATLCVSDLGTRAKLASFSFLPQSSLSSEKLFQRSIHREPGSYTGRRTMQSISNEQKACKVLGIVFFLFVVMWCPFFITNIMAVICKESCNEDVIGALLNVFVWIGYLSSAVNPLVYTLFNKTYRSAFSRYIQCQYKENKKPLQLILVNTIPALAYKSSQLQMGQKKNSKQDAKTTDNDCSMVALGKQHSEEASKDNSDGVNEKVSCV
structure (smiles),measurement,setting,value
O=C1CCc2ccc(OCCCCN3CCN(c4cccc(Cl)c4Cl)CC3)cc2N1 [aripiprazole],affinity for 5-HT2A receptors,5-HT2A receptors,high affinity
same,affinity for 5-HT1A receptors,5-HT1A receptors,high affinity
